Measured values taken from PMC4188773 (Cell calcium, 2014).
Values after ≈ are worked out from the molar mass of the structure shown. Values joined by “and” are separate entries in the source; they are usually repeats but may differ in a detail not shown here. Equal entries are not always repeated. “Also recorded” adds a separate entry of the source.

Legend:
[1] = source not stated; cited from earlier work
[2] = pH7; source not stated; cited from earlier work
[3] = molecular target: T1, mouse eugenol OR (mOR-EG) (Mus musculus, UniProt Q920P2); assay: dual read-out assay, mOR-EG/PLC and mOR-EG/AC responses compared; type: cell-based; details: for AC-/PLC- mediated Ca2+ response (result in words): both read-outs, up to 1-5 mM; for functional bias between PLC and AC pathways (in words): pair-wise comparison of EC50 values
T1 sequence (Q920P2 1-313): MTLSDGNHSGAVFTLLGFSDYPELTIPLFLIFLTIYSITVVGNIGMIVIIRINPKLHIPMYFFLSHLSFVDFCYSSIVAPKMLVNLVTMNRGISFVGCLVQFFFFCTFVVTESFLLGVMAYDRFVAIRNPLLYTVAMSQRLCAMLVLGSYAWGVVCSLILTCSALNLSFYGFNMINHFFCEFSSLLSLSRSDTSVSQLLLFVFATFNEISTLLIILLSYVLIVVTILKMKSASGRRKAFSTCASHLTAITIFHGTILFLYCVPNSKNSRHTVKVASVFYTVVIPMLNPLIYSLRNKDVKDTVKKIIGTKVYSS

[4] = tested on: CNGC-camp; assay: stimulation of endogenous purinergic Gαq pathway, CNGC-camp read-out; type: cell-based, rat; details: 100μM, saturating
[5] = molecular target: T1, mouse eugenol OR (mOR-EG); assay: mOR-EG/PLC Ca2+ imaging: mOR-EG + Gα15 in HEK293T cells; type: cell-based; details: for decay time 90% to 10%, PLC-dependent Ca2+ response / time of peak, PLC-dependent Ca2+ response / time to rise 10% to 90%, PLC-dependent Ca2+ response: saturating response parameters
[6] = molecular target: T1, mouse eugenol OR (mOR-EG); assay: mOR-EG/AC Ca2+ imaging: mOR-EG + Gαolf + CNGC-camp in HEK293T cells; type: cell-based; details: for decay time 90% to 10%, AC-dependent Ca2+ response / time of peak, AC-dependent Ca2+ response / time to rise 10% to 90%, AC-dependent Ca2+ response: saturating response parameters
[7] = tested on: HEK293T cells; assay: control HEK293T cells lacking components of the read-out; type: cell-based; details: for Ca2+ response in cells expressing mOR-EG and Gαolf without CNGC-camp: eugenol 0.5-2mM, forskolin 20μM, n>500
[8] = tested on: AgOR65+AgOrco; assay: Ca2+ response of HEK293T cells expressing mosquito OR AgOR65+AgOrco; type: cell-based, A. gambiae; details: 1μM, 5-s stimulation
[9] = molecular target: T1, mouse eugenol OR (mOR-EG); assay: mOR-EG/PLC Ca2+ response in MMDD1 macula densa cells; type: cell-based; details: range and mean
[10] = molecular target: T1, mouse eugenol OR (mOR-EG); type: cell-based; details: up to 1 mM
[11] = tested on: adenylate cyclase; assay: forskolin-induced Ca2+ influx in mOR-EG/Gαs
[12] = 100μM, range over cells and mean±SEM
[13] = cumulative concentration-dependence

For `CC(C)c1ccc(O)cc1` [4-isopropylphenol], the logP [1] is given as 3, the solubility [2] is given as 15 mM (≈ 2040 µg/mL) and the “AC-/PLC- mediated Ca2+ response (result in words)” value (from here on “AC-/PLC- mediated Ca2+ response”) [3] is given as “failed to activate any response; also recorded: no effects”.
With `CC(C)(C)c1ccc(O)cc1` [4-tert-butylphenol] the “AC-/PLC- mediated Ca2+ response” value [3] was “failed to activate any response; also recorded: no effects”.
In the case of `Nc1ncnc2c1ncn2[C@@H]1O[C@H](COP(=O)(O)OP(=O)(O)OP(=O)(O)O)[C@@H](O)[C@H]1O` [ATP], the “activation of CNGC-camp” value [4] is reported as “did not induce appreciable activation of CNGC-camp”.
For `C=CCc1ccc(OC(C)=O)c(OC)c1` [acetyl eugenol], the EC50 [5] was 348 µM, the “decay time 90% to 10%, PLC-dependent Ca2+ response” value [5] was 44 ± 1 s and the “time of peak, PLC-dependent Ca2+ response” value [5] was 19.6 ± 0.9 s. The “time to rise 10% to 90%, PLC-dependent Ca2+ response” value [5] was 7.7 ± 0.4 s, the logP [1] was 2.7 and the solubility [2] was 1.4 mM (≈ 289 µg/mL). The “functional bias between PLC and AC pathways (in words)” value [3] was “activated both pathways with similar EC50 values”, the EC50 [6] was 373 ± 49 µM and the “decay time 90% to 10%, AC-dependent Ca2+ response” value [6] was 125.5 ± 5.1 s. For the same compound, the “time of peak, AC-dependent Ca2+ response” value [6] was 90.8 ± 3.4 s and the “time to rise 10% to 90%, AC-dependent Ca2+ response” value [6] was 27.6 ± 1.7 s.
In the case of `CCOc1cc(C=O)ccc1O` [ethyl vanillin], the EC50 [5] is reported as 1490 µM, the “decay time 90% to 10%, PLC-dependent Ca2+ response” value [5] is reported as 52.3 ± 4.8 s and the “time of peak, PLC-dependent Ca2+ response” value [5] is reported as 22.6 ± 1.5 s. The “time to rise 10% to 90%, PLC-dependent Ca2+ response” value [5] was 9.5 ± 0.8 s, the logP [1] was 1.7 and the solubility [2] was 11 mM (≈ 1830 µg/mL). For the same compound, the “functional bias between PLC and AC pathways (in words)” value [3] was “activated both pathways with similar EC50 values”, the EC50 [6] was 2170 ± 131 µM and the “decay time 90% to 10%, AC-dependent Ca2+ response” value [6] was 115.7 ± 10.8 s. For the same compound, the “time of peak, AC-dependent Ca2+ response” value [6] was 91.6 ± 5.8 s and the “time to rise 10% to 90%, AC-dependent Ca2+ response” value [6] was 36.9 ± 3.3 s.
With `C=CCc1ccc(O)c(OC)c1` [eugenol] the “Tdecay, mOR-EG/PLC response” value ([5]; 25μM) was 35.0 ± 0.8 s, the “Tpeak, mOR-EG/PLC response” value ([5]; 25μM) was 18.6 ± 0.8 s and the “Trise, mOR-EG/PLC response” value ([5]; 25μM) was 10.8 ± 0.9 s. The “Tdecay, mOR-EG/PLC response” value [5, 12] was 49.4 ± 1.8 s, the “Tpeak, mOR-EG/PLC response” value [5, 12] was 31.5 ± 0.7 s and the “Trise, mOR-EG/PLC response” value [5, 12] was 8.4 ± 0.3 s. For the same compound, the “Tpeak, mOR-EG/PLC response” value ([5]; 1mM) was 15.4 ± 0.4 s, the “Ca2+ response on removal of extracellular Ca2+, mOR-EG/Gα15 cells” value ([5]; 1mM, 5-s pulse) was “otherwise not affecting the Ca^2+ response” and the “Tdecay, mOR-EG/PLC response” value ([5]; 5mM) was 57.9 ± 3.8 s. For the same compound, the “Trise, mOR-EG/PLC response” value ([5]; 5mM) was 5.6 ± 0.3 s, the “Hill coefficient, mOR-EG/PLC response” value [5, 13] was 1.2 and the “decay time 90% to 10%, PLC-dependent Ca2+ response” value [5] was 52.6 ± 1.1 s. The “time of peak, PLC-dependent Ca2+ response” value [5] was 15.4 ± 0.4 s, the “time to rise 10% to 90%, PLC-dependent Ca2+ response” value [5] was 7.6 ± 0.2 s and the “functional bias between PLC and AC pathways (in words)” value [3] was “activated both pathways with similar EC50 values”. For the same compound, the “Ca2+ response in untransfected cells or cells expressing mOR-EG alone” value ([7]; 0.5-5mM, n>1000) was “Neither untransfected HEK293T cells nor cells expressing mOR-EG alone were sensitive”, the “Ca2+ response in cells expressing mOR-EG and Gαolf without CNGC-camp” value [7] was “did not generate noticeable Ca^2+ responses” and the “response kinetics vs mOR-EG responses” value [8] was “much faster response”. The “Tpeak, mOR-EG/PLC response” value [9] was 13 ± 0.8 s, the EC50 [6] was 53 ± 11 µM and the “Tdecay, mOR-EG/AC response” value [6, 12] was 102 ± 11 s and 101.9 ± 10.9 s. The “Tpeak, mOR-EG/AC response” value [6, 12] was 76 ± 6 s and 75.9 ± 6.1 s, the “Trise, mOR-EG/AC response” value [6, 12] was 32 ± 3 s and 32.2 ± 3.0 s and the “Ca2+ response on removal of extracellular Ca2+, mOR-EG/Gαs(olf) cells” value ([6]; 1mM) was “completely abolished the response”. The “Tdecay, mOR-EG/AC response” value ([6]; 5mM) was 125.1 ± 4.9 s, the “Tpeak, mOR-EG/AC response” value ([6]; 5mM) was 90.5 ± 2.9 s and the “Trise, mOR-EG/AC response” value ([6]; 5mM) was 38.5 ± 1.5 s. For the same compound, the “Hill coefficient, mOR-EG/AC response” value [6, 13] was 0.97, the “decay time 90% to 10%, AC-dependent Ca2+ response” value [6] was 128.2 ± 4.9 s and the “time of peak, AC-dependent Ca2+ response” value [6] was 90.5 ± 4.4 s. For the same compound, the “time to rise 10% to 90%, AC-dependent Ca2+ response” value [6] was 39.4 ± 2.2 s and the “slow Gαs(olf)-dependent response in dual-response cells” value [10] was “obvious in the signal evoked by eugenol”.
With `C=C[C@@]1(C)CC(=O)[C@]2(O)[C@@]3(C)[C@@H](O)CCC(C)(C)[C@@H]3[C@H](O)[C@H](OC(C)=O)[C@@]2(C)O1` [forskolin] the “Trise of Ca2+ influx on re-addition of 2 mM Ca2+” value ([11]; 10μM forskolin applied in 0-Ca2+, Ca2+ added 60 s after stimulation (Fig.3F)) was 24.3 ± 3.1 s, the “effect on Ca2+ concentration” value ([11]; 10 μM, 5 sec pulse, mOR-EG/Gαs(olf) cells) was “increased the Ca^2+ concentration” and the “Trise of response to forskolin” value ([11]; 10μM, extracellular Ca2+ present (Fig.3E)) was 76.7 ± 5.7 s. For the same compound, the “Ca2+ response in cells expressing mOR-EG and Gαolf without CNGC-camp” value [7] was “did not generate noticeable Ca^2+ responses”.
In the case of `C/C=C/c1ccc2c(c1)OCO2` [isosafrole], the logP [1] is given as 3.9, the solubility [2] is given as 0.6 mM (≈ 97.3 µg/mL) and the “AC-/PLC- mediated Ca2+ response” value [3] is given as “failed to activate any response; also recorded: non agonist, antagonist (*)”.
